{"source": "patent US11923581B2", "about": "“Aqueous redox flow battery electrolytes with high chemical and electrochemical stability, high water solubility, low membrane permeability” (President and Fellows of Harvard College, priority 2016, dated 2024)", "key": {"physchem": {"assay": "physchem", "settings": "25 °C, thermodynamic from solid"}, "[1]": {"assay": "Cyclic voltammetry, reduction potential", "assay_type": "physicochemical"}, "[2]": {"settings": "cited from earlier work"}, "Solubility in water": {"assay": "Solubility in water", "settings": "25° C."}}}
{"compound": "C[N+](C)(C)CCC[n+]1ccc(-c2cc[n+](CCC[N+](C)(C)C)cc2)cc1", "note": "[Compound 1, (3-trimethylammonio)propyl viologen tetrachloride]", "values": [{"measurement": "solubility", "setting": "physchem; pH 7, water", "value": 2000, "unit": "mM"}, {"measurement": "solubility", "setting": "physchem; water", "value": 2000, "unit": "mM"}, {"measurement": "reduction potential vs. Ag/AgCl reference electrode", "setting": "[1]; pH 7", "value": "−0.55", "unit": "V"}, {"measurement": "reduction potential vs. RHE", "setting": "[1]; pH 7", "value": "+0.07 V"}]}
{"compound": "C[N+](C)(C)CCC[c-]1cccc1.C[N+](C)(C)CCC[c-]1cccc1.[Cl-].[Cl-].[Fe+2]", "note": "[Compound 2, bis((3-trimethylammonio)propyl)ferrocene dichloride]", "values": [{"measurement": "reduction potential vs. Ag/AgCl reference electrode", "setting": "[1]; pH 7", "value": "+0.21 V"}, {"measurement": "reduction potential vs. RHE", "setting": "[1]; pH 7", "value": "+0.83 V"}]}
{"compound": "C[n+]1ccc(-c2cc[n+](C)cc2)cc1", "note": "[MV dichloride, methyl viologen]", "values": [{"measurement": "solubility in water at pH 7", "setting": "[2]", "value": 3.0, "unit": "M"}]}
{"compound": "C[N+](C)(C)C[c-]1cccc1.F[B-](F)(F)F.[Fe+2].c1cc[cH-]c1", "note": "[Compound 3]", "values": [{"measurement": "reduction potential vs. RHE", "setting": "[1]; pH 7, converted from the measured potential", "value": "+1.05 V"}, {"measurement": "reduction potential vs. Ag/AgCl reference electrode", "setting": "[1]; pH 7, cyclic voltammetry", "value": "+0.43 V"}, {"measurement": "water solubility", "setting": "Solubility in water", "value": "~400", "unit": "mM"}]}
{"compound": "C[N+](C)(C)CCCNC(=O)[c-]1cccc1.[Cl-].[Fe+2].c1cc[cH-]c1", "note": "[Compound 7, N-((3-trimethylammonio)propyl) ferrocenecarboxamide chloride]", "values": [{"measurement": "reduction potential higher than that of 2", "setting": "[1]; pH 7", "value": "~240", "unit": "mV"}, {"measurement": "reduction potential vs SHE", "setting": "[1]; pH 7", "value": "+0.63 V"}, {"measurement": "reduction potential vs. RHE", "setting": "[1]; pH 7", "value": "+1.04 V"}]}
